Reference: US8158783B2, “MTP inhibiting tetrahydro-naphthalene-1-carboxylic acid derivatives” (Janssen Pharmaceutica N.V., priority 2006, dated 2012)

How the values were obtained:
[1] = system: secretion of ApoB, HepG2 cells; test: Quantification of the secretion of ApoB in HepG2 cells; assay type: cell-based; conditions: Homo sapiens, 24 hours of incubation, pIC50 = -log IC50
Protocol: HepG2 cells were cultured in 24-well plates in MEM Rega 3 containing 10% fetal calf serum. At 70% confluency, the medium was changed and the test compound or carrier (DMSO, 0.4% final concentration) was added. After 24 hours of incubation, the medium was transferred to Eppendorf tubes and cleared by centrifugation. A sheep antibody directed against either apoB was added to the supernatant and the mixture was kept at 8° C. for 24 hours. Then, rabbit anti-sheep antibody was added and the immune complex was allowed to precipitate for 24 hours at 8° C. The immunoprecipitate was pelleted by centrifugation for 25 minutes at 1320 g and washed twice with a buffer containing 40 mM Mops, 40 mM NaH2PO4, 100 mM NaF, 0.2 mM DTT, 5 mM EDTA, 5 mM EGTA, 1% Triton-X-100, 0.5% sodium deoxycholate (DOC), 0.1% SDS, 0.2 mM leupeptin and 0.2 mM PMSF. Radioactivity in the pellet was quantified by liquid scintillation counting.

MTP = MTP (Homo sapiens, UniProt P55157); test: MTP assay (triglyceride transfer from donor to acceptor vesicles); assay type: biochemical; conditions: MTP activity, [14C]-triglyceride transfer between vesicles, 37° C.
MTP, sequence (P55157 19-894, species assumed): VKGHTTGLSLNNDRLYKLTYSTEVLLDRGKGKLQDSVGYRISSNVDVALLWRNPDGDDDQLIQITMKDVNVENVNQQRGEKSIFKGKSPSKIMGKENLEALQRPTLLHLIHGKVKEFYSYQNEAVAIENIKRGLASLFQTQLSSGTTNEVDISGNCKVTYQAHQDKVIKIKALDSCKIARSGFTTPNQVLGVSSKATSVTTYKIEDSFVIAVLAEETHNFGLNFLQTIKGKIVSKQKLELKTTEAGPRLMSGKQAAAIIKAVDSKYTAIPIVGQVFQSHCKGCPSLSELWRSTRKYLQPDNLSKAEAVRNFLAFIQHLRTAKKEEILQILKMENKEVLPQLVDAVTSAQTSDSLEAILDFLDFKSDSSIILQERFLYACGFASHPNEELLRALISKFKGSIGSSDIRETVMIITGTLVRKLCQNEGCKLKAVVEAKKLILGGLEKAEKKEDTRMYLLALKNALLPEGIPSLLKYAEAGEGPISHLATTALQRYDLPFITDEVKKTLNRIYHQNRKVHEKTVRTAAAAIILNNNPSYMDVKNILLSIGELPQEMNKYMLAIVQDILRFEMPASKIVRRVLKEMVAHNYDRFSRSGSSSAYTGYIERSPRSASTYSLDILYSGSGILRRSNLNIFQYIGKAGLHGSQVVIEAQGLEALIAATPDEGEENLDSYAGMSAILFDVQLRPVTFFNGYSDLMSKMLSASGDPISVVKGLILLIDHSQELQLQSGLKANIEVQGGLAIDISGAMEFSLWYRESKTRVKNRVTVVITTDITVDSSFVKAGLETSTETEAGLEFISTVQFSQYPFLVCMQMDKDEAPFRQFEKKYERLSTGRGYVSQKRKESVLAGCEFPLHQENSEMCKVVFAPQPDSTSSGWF
MTP, sequence (P07237 18-508 partner, species assumed): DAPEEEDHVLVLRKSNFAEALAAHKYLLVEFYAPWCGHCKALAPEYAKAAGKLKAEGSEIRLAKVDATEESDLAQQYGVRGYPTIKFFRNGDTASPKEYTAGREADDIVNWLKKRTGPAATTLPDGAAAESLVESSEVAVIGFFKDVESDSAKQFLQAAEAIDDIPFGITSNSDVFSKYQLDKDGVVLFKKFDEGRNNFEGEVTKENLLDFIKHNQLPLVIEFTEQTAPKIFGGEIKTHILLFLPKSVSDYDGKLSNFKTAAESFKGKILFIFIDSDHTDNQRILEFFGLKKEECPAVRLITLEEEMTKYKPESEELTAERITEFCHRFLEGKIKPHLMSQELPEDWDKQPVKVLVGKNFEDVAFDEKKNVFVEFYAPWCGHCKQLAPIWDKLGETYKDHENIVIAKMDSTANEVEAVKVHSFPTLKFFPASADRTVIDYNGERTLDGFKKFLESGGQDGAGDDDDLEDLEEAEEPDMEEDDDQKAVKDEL
Protocol: MTP activity was measured using an assay similar to one described by J. R. Wetterau and D. B. Zilversmit in Chemistry and Physics of Lipids, 38, 205-222 (1985). To prepare the donor and acceptor vesicles, the appropriate lipids in chloroform were put into a glass test tube and dried under a stream of N2. A buffer containing 15 mM Tris-HCl pH 7.5, 1 mM EDTA, 40 mM NaCl, 0.02% NaN3 (assay buffer) was added to the dried lipid. The mixture was vortexed briefly and the lipids were then allowed to hydrate for 20 min on ice. Vesicles were then prepared by bath sonication (Branson 2200) at room temperature for maximum 15 min. Butylated hydroxytoluene was included in all vesicle preparations at a concentration of 0.1%. The lipid transfer assay mixture contained donor vesicles (40 nmol phosphatidylcholine, 7.5 mol % of cardiolipin and 0.25 mol % glycerol tri[1-^14C]-oleate), acceptor vesicles (240 nmol phosphatidylcholine) and 5 mg BSA in a total volume of 675 μl in a 1.5 ml microcentrifuge tube. Test compounds were added dissolved in DMSO (0.13% final concentration). After 5 minutes of pre-incubation at 37° C., the reaction was started by the addition of MTP in 100 μl dialysis buffer. The reaction was stopped by the addition of 400 μl DEAE-52 cellulose pre-equilibrated in 15 mM Tris-HCl pH 7.5, 1 mM EDTA, 0.02% NaN3 (1:1, vol/vol). The mixture was agitated for 4 min and centrifuged for 2 min at maximum speed in an Eppendorf centrifuge (4° C.) to pellet the DEAE-52-bound donor vesicles. An aliquot of the supernatant containing the acceptor liposomes was counted and the [^14C]-counts were used to calculate the percent triglyceride transfer from donor to acceptor vesicles.

Row | Structure (SMILES) | IC50 [1] [nM] | IC50 (MTP) [nM]
1 | CCOC(=O)[C@@]1(c2ccccc2)CC[C@H](C(=O)NCCNC(=O)c2ccccc2OC)c2ccccc21 (stereo in doubt) [compound 25] | 17.3 | 6.52
2 | CCOC(=O)[C@]1(c2ccccc2)CC[C@@H](C(=O)NCCNC(=O)c2ccccc2OC)c2ccccc21 (stereo in doubt) [compound 26] | 560 | 173
3 | CCOC(=O)[C@@]1(c2ccccc2)CC[C@H](C(=O)N(C)CCCNC(=O)c2ccccc2OC)c2ccccc21 (stereo in doubt) [compound 28] | 95.9 | 7.18
4 | CCOC(=O)[C@]1(c2ccccc2)CC[C@@H](C(=O)NCCNC(=O)c2ccccc2)c2ccccc21 [compound 1] |  | 1250
5 | CCOC(=O)[C@]1(c2ccccc2)CC[C@@H](C(=O)NCCNC(=O)c2ccccc2OC)c2ccccc21 [compound 2] |  | 406
6 | CCOC(=O)[C@]1(c2ccccc2)CC[C@@H](C(=O)NCCNC(=O)c2ccccc2-c2ccc(C(F)(F)F)cc2)c2ccccc21 [compound 3] |  | 208
7 | CCOC(=O)[C@]1(c2ccccc2)CC[C@@H](C(=O)NCCCNC(=O)c2ccccc2)c2ccccc21 [compound 4] | 317 | 22.2
8 | CCOC(=O)[C@]1(c2ccccc2)CC[C@@H](C(=O)NCCCNC(=O)c2ccccc2OC)c2ccccc21 [compound 5] | 192 | 9.38
9 | CCOC(=O)[C@]1(c2ccccc2)CC[C@@H](C(=O)NCCCNC(=O)c2ccccc2-c2ccc(C(F)(F)F)cc2)c2ccccc21 [compound 6] | 42.7 | 9.59
10 | CCOC(=O)[C@]1(c2ccccc2)CC[C@@H](C(=O)N(C)CCNC(=O)c2ccccc2)c2ccccc21 [compound 7] | > 1000 | 85.5
11 | CCOC(=O)[C@]1(c2ccccc2)CC[C@@H](C(=O)N(C)CCNC(=O)c2ccccc2OC)c2ccccc21 [compound 8] | > 1000 | 27
12 | CCOC(=O)[C@]1(c2ccccc2)CC[C@@H](C(=O)N(C)CCNC(=O)c2ccccc2-c2ccc(C(F)(F)F)cc2)c2ccccc21 [compound 9] | 128 | 19.1
13 | CCOC(=O)[C@]1(c2ccccc2)CC[C@@H](C(=O)N(C)CCCNC(=O)c2ccccc2)c2ccccc21 [compound 10] | 746 | 10
14 | CCOC(=O)[C@]1(c2ccccc2)CC[C@@H](C(=O)N(C)CCCNC(=O)c2ccccc2OC)c2ccccc21 [compound 11] | 665 | 
15 | CCOC(=O)[C@]1(c2ccccc2)CC[C@@H](C(=O)N(C)CCCNC(=O)c2ccccc2-c2ccc(C(F)(F)F)cc2)c2ccccc21 [compound 12] | 23.2 | 6.34
16 | CCOC(=O)[C@]1(c2ccccc2)CC[C@H](C(=O)NCCNC(=O)c2ccccc2)c2ccccc21 [compound 13] |  | 5380
17 | CCOC(=O)[C@]1(c2ccccc2)CC[C@H](C(=O)NCCNC(=O)c2ccccc2OC)c2ccccc21 [compound 14] |  | 2490
18 | CCOC(=O)[C@]1(c2ccccc2)CC[C@H](C(=O)NCCNC(=O)c2ccccc2-c2ccc(C(F)(F)F)cc2)c2ccccc21 [compound 15] |  | 2750

Row | Structure (SMILES) | IC50 [1] [nM] | IC50 (MTP) [nM]
19 | CCOC(=O)[C@]1(c2ccccc2)CC[C@H](C(=O)NCCCNC(=O)c2ccccc2)c2ccccc21 [compound 16] | 791 | > 100
20 | CCOC(=O)[C@]1(c2ccccc2)CC[C@H](C(=O)NCCCNC(=O)c2ccccc2OC)c2ccccc21 [compound 17] | 415 | 37.3
21 | CCOC(=O)[C@]1(c2ccccc2)CC[C@H](C(=O)NCCCNC(=O)c2ccccc2-c2ccc(C(F)(F)F)cc2)c2ccccc21 [compound 18] | 309 | 61.8
22 | CCOC(=O)[C@]1(c2ccccc2)CC[C@H](C(=O)N(C)CCNC(=O)c2ccccc2)c2ccccc21 [compound 19] | 228 | 131
23 | CCOC(=O)[C@]1(c2ccccc2)CC[C@H](C(=O)N(C)CCNC(=O)c2ccccc2OC)c2ccccc21 [compound 20] | > 1000 | 70.6
24 | CCOC(=O)[C@]1(c2ccccc2)CC[C@H](C(=O)N(C)CCNC(=O)c2ccccc2-c2ccc(C(F)(F)F)cc2)c2ccccc21 [compound 21] | 240 | 48.2
25 | CCOC(=O)[C@]1(c2ccccc2)CC[C@H](C(=O)N(C)CCCNC(=O)c2ccccc2)c2ccccc21 [compound 22] | 662 | 16.4
26 | CCOC(=O)[C@]1(c2ccccc2)CC[C@H](C(=O)N(C)CCCNC(=O)c2ccccc2OC)c2ccccc21 [compound 23] | 597 | 11.6
27 | CCOC(=O)[C@]1(c2ccccc2)CC[C@H](C(=O)N(C)CCCNC(=O)c2ccccc2-c2ccc(C(F)(F)F)cc2)c2ccccc21 [compound 24] | 23.2 | 6.11
28 | CCCOC(=O)[C@]1(c2ccccc2)CC[C@@H](C(=O)N2CCC(NC(=O)c3ccccc3OC)C2)c2ccccc21 (stereo partly shown) [compound 29] | 104 | 40
29 | CCCOC(=O)[C@]1(c2ccccc2)CCC(C(=O)N2CC[C@@H](NC(=O)c3cccnc3OC)C2)c2ccccc21 (stereo partly shown) [compound 30] | 76.7 | 23.3
30 | COC(=O)CCNC(=O)[C@]1(c2ccccc2)CC[C@@H](C(=O)N(C)CCCNC(=O)c2ccccc2OC)c2ccccc21 [compound 31] | > 1000 | 65.2
31 | COC(=O)CCNC(=O)[C@]1(c2ccccc2)CC[C@@H](C(=O)N(C)CCCNC(=O)c2cccnc2OC)c2ccccc21 [compound 32] | > 1000 | 166
32 | COC(=O)CCNC(=O)[C@]1(c2ccccc2)CC[C@@H](C(=O)N2CCCC(NC(=O)c3cccnc3OC)CC2)c2ccccc21 (stereo partly shown) [compound 33] | > 1000 | 80
33 | CCCOC(=O)[C@]1(c2ccccc2)CC[C@@H](C(=O)N2CCCC(NC(=O)c3ccccc3OC)CC2)c2ccccc21 (stereo partly shown) [compound 42] | 286 | 23
34 | COC(=O)CCNC(=O)[C@]1(c2ccccc2)CC[C@@H](C(=O)N2CCOC(CNC(=O)c3cccnc3O)C2)c2ccccc21 (stereo partly shown) [compound 43] |  | > 1000
35 | COC(=O)CCNC(=O)[C@]1(c2ccccc2)CC[C@@H](C(=O)N2CCCC(NC(=O)c3ccccc3OC)CC2)c2ccccc21 (stereo partly shown) [compound 44] |  | 52.8
